This data set concerns CCRIS mutagenicity, Ames/micronucleus/aberration tests. In words: CCRIS mutagenicity studies.
The mark [1] stands for this setting: Test System: AMES SALMONELLA TYPHIMURIUM, Strain/Indicator: TA98, Metabolic Activation: NONE, Method: STANDARD PLATE.
Where [2] appears, read: Test System: AMES SALMONELLA TYPHIMURIUM, Strain/Indicator: TA100, Metabolic Activation: NONE, Method: STANDARD PLATE.
The mark [3] stands for this setting: Test System: MOUSE LYMPHOMA, Strain/Indicator: L5178Y (TK+/TK-), Metabolic Activation: RAT, LIVER, S-9, AROCLOR 1254, Method: SUSPENSION/PLATE.

Active and inactive are the calls of the source. How the calls were made is not given here.

On to `COC(C)(C)C`, for which the mutagenic call (Test System: AMES SALMONELLA TYPHIMURIUM, Strain/Indicator: TA98, Metabolic Activation: NONE) was “inactive; negative”; the mutagenic call (Test System: AMES SALMONELLA TYPHIMURIUM, Strain/Indicator: TA98, Metabolic Activation: NONE, Method: MICROSUSPENSION) is “inactive; negative”; the mutagenic call under setting [1] was “inactive; negative”; the mutagenic call (Test System: AMES SALMONELLA TYPHIMURIUM, Strain/Indicator: TA98, Metabolic Activation: RAT LIVER S-9) was “inactive; negative”; the mutagenic call (Test System: AMES SALMONELLA TYPHIMURIUM, Strain/Indicator: TA98, Metabolic Activation: RAT LIVER S-9, AROCLOR 1254, Method: STANDARD PLATE) is “inactive; negative”; the mutagenic call (Test System: AMES SALMONELLA TYPHIMURIUM, Strain/Indicator: TA98, Metabolic Activation: RAT, LIVER, S-9, AROCLOR 1254, Method: MICROSUSPENSION) was “inactive; negative”. Moreover, the mutagenic call (Test System: AMES SALMONELLA TYPHIMURIUM, Strain/Indicator: TA100, Metabolic Activation: NONE) is “inactive; negative”; the mutagenic call (Test System: AMES SALMONELLA TYPHIMURIUM, Strain/Indicator: TA100, Metabolic Activation: NONE, Method: MICROSUSPENSION) was “inactive; negative”; the mutagenic call under setting [2] was “inactive; negative”; the mutagenic call (Test System: AMES SALMONELLA TYPHIMURIUM, Strain/Indicator: TA100, Metabolic Activation: RAT LIVER S-9) is “inactive; negative”; the mutagenic call (Test System: AMES SALMONELLA TYPHIMURIUM, Strain/Indicator: TA100, Metabolic Activation: RAT LIVER S-9, AROCLOR 1254, Method: STANDARD PLATE) was “inactive; negative”; the mutagenic call (Test System: AMES SALMONELLA TYPHIMURIUM, Strain/Indicator: TA100, Metabolic Activation: RAT, LIVER, S-9, AROCLOR 1254, Method: MICROSUSPENSION) is “inactive; negative”. Also, the mutagenic call runs as follows: (Test System: AMES SALMONELLA TYPHIMURIUM, Strain/Indicator: TA102, Metabolic Activation: NONE, Method: STANDARD PLATE) “inactive; negative”; (Test System: AMES SALMONELLA TYPHIMURIUM, Strain/Indicator: TA102, Metabolic Activation: RAT, LIVER, S-9, PHENOBARBITAL-BETA-NAPHTHOFLAVONE, Method: STANDARD PLATE) “inactive; negative”; (Test System: AMES SALMONELLA TYPHIMURIUM, Strain/Indicator: TA104, Metabolic Activation: NONE, Method: MICROSUSPENSION) “inactive; negative”; (Test System: AMES SALMONELLA TYPHIMURIUM, Strain/Indicator: TA104, Metabolic Activation: RAT, LIVER, S-9, AROCLOR 1254, Method: MICROSUSPENSION) “inactive; negative”; (Test System: AMES SALMONELLA TYPHIMURIUM, Strain/Indicator: TA1535, Metabolic Activation: NONE, Method: MICROSUSPENSION) “inactive; negative”; (Test System: AMES SALMONELLA TYPHIMURIUM, Strain/Indicator: TA1535, Metabolic Activation: RAT, LIVER, S-9, AROCLOR 1254, Method: MICROSUSPENSION) “inactive; negative”. For the same compound, the mutagenic call (Test System: Ames Salmonella typhimurium, Strain/Indicator: TA98, Metabolic Activation: None, Method: Plate incorporation) was “inactive; negative”; the mutagenic call (Test System: Ames Salmonella typhimurium, Strain/Indicator: TA98, Metabolic Activation: None, Method: Preincubation) is “inactive; negative”; the mutagenic call (Test System: Ames Salmonella typhimurium, Strain/Indicator: TA98, Metabolic Activation: Rat, Liver, S-9, Method: Plate incorporation) was “inactive; negative”; the mutagenic call (Test System: Ames Salmonella typhimurium, Strain/Indicator: TA98, Metabolic Activation: Rat, Liver, S-9, Method: Preincubation) is “inactive; negative”; the mutagenic call (Test System: Ames Salmonella typhimurium, Strain/Indicator: TA100, Metabolic Activation: None, Method: Plate incorporation) is “inactive; negative”; the mutagenic call (Test System: Ames Salmonella typhimurium, Strain/Indicator: TA100, Metabolic Activation: None, Method: Preincubation) was “inactive; negative”. Besides, the mutagenic call (Test System: Ames Salmonella typhimurium, Strain/Indicator: TA100, Metabolic Activation: Rat, Liver, S-9, Method: Plate incorporation) was “inactive; negative”; the mutagenic call (Test System: Ames Salmonella typhimurium, Strain/Indicator: TA100, Metabolic Activation: Rat, Liver, S-9, Method: Preincubation) was “inactive; negative”; the mutagenic call (Test System: Ames Salmonella typhimurium, Strain/Indicator: YG1041, Metabolic Activation: None, Method: Plate incorporation) was “inactive; negative”; the mutagenic call (Test System: Ames Salmonella typhimurium, Strain/Indicator: YG1041, Metabolic Activation: None, Method: Preincubation) is “inactive; negative”; the mutagenic call (Test System: Ames Salmonella typhimurium, Strain/Indicator: YG1042, Metabolic Activation: None, Method: Plate incorporation) was “inactive; negative”; the mutagenic call (Test System: Ames Salmonella typhimurium, Strain/Indicator: YG1042, Metabolic Activation: None, Method: Preincubation) was “inactive; negative”. Also, the mutagenic call by setting is: under setting [3], “active; positive”; (Test System: MOUSE LYMPHOMA, Strain/Indicator: L5178Y (TK+/TK-), Method: SUSPENSION/PLATE) “inactive; negative”; (Test System: UDS MOUSE HEPATOCYTES, Strain/Indicator: THY INCORP, Metabolic Activation: NONE, Method: IN-VIVO-IN VITRO) “inactive; negative”; (Test System: UDS RAT HEPATOCYTES, Strain/Indicator: THYMIDINE INCORPORATION, Metabolic Activation: NONE, Method: LIQUID SCINTILLATION COUNTING) “active; positive”; (Test System: UDS RAT HEPATOCYTES, Strain/Indicator: THYMIDINE INCORPORATION, Metabolic Activation: RAT LIVER S-9, AROCLOR 1254, Method: LIQUID SCINTILLATION COUNTING) “active; positive”.
Turning to `CC(=O)c1ccc(Cl)c(Cl)c1Cl`, the mutagenic call is, setting by setting: (Test System: AMES SALMONELLA TYPHIMURIUM, Strain/Indicator: TA98, Metabolic Activation: HAMSTER, LIVER, S-9, AROCLOR 1254, Method: STANDARD PLATE) “active; positive”; under setting [1], “inactive; negative”; (Test System: AMES SALMONELLA TYPHIMURIUM, Strain/Indicator: TA98, Metabolic Activation: RAT, LIVER, S-9, AROCLOR 1254, Method: STANDARD PLATE) “inactive; negative”; (Test System: AMES SALMONELLA TYPHIMURIUM, Strain/Indicator: TA100, Metabolic Activation: HAMSTER, LIVER, S-9, AROCLOR 1254, Method: STANDARD PLATE) “active; positive”; under setting [2], “inactive; negative”; (Test System: AMES SALMONELLA TYPHIMURIUM, Strain/Indicator: TA100, Metabolic Activation: RAT, LIVER, S-9, AROCLOR 1254, Method: STANDARD PLATE) “active; positive”. For the same compound, the mutagenic call was “inactive; negative. reevaluation of results: inconclusive” (Test System: MOUSE LYMPHOMA, Strain/Indicator: L5178Y (TK+/TK-), Metabolic Activation: NONE, Method: SUSPENSION/PLATE) and “inactive; negative. reevaluation of results: negative” under setting [3].
Turning to `Fc1ccc2ncccc2c1`, the mutagenic call is, setting by setting: (End Point: In vitro chromosomal aberrations, Test System: Chinese hamster lung fibroblast cells (CHL/IU), Metabolic Activation: Rat, liver, S-9) “active; positive, toxicity at 0.1 mg/ml. (information derived from a figure)”; (End Point: In vitro micronucleus, Test System: Chinese hamster lung fibroblast cells (CHL/IU), Metabolic Activation: Rat, liver, S-9) “active; positive, cytotoxic at 0.2 mg/ml (information derived from a figure)”; (Test System: AMES SALMONELLA TYPHIMURIUM, Strain/Indicator: TA100, Metabolic Activation: RAT LIVER S-9, PHENOBARBITAL AND 5,6-BENZOFLAVONE, Method: PREINCUBATION) “active; positive”; (Test System: AMES SALMONELLA TYPHIMURIUM, Strain/Indicator: TA100, Metabolic Activation: RAT, LIVER, S-9, AROCLOR 1254, Method: PREINCUBATION) “active; positive”; (Test System: AMES SALMONELLA TYPHIMURIUM, Strain/Indicator: TA100, Metabolic Activation: RAT, LIVER, S-9, PHENOBARBITAL AND 5,6-BENZOFLAVONE, Method: PREINCUBATION) “active; positive”; (Test System: AMES SALMONELLA TYPHIMURIUM, Strain/Indicator: TA100, Metabolic Activation: RAT, LIVER, S-9, PHENOBARBITAL AND 5,6-NAPHTHOFLAVONE, Method: PREINCUBATION) “active; positive”. Also, the mutagenic call (Test System: UDS RODENT HEPATOCYTES, Strain/Indicator: THY INCORP (NON-S-PHASE), Metabolic Activation: NONE, Method: AUTORADIOGRAPHY) was “active; positive”.

Values taken from PubChem BioAssay AID1259407 (Chemical Carcinogenesis Research Information System (CCRIS), 2018).
